Experimental data taken from PubChem BioAssay AID488878 (Sanford-Burnham Center for Chemical Genomics, 2010).
Active and inactive are the calls of the source. No rule for the calls is given here.

These compounds were tested against Alkaline phosphatase, placental type (Homo sapiens) (UniProt P05187) (assay: activation of placental alkaline phosphatase – biochemical, uHTS hits, mouse IAP activator project, dose response (AID 488878)). Settings: purified human PLAP enzyme activity.

Row | SMILES | EC50
1 | Cc1ccc(C(=O)Nc2nnc(CC(=O)N/N=C/c3ccc(O)c(O)c3)s2)cc1 | 49.7 µM
2 | Oc1cc(O)c2c(c1)O[C@H](c1ccc(O)c(O)c1)[C@H](O)C2 | 51.3 µM
3 | N#C/C(=C\c1ccc(O)c(O)c1)C(=O)c1ccc(O)c(O)c1 | 8.03 µM
4 | CC1(C(=O)NNC(=O)c2ccc(=O)oc2)CC1Br (configuration not stated) | 57.9 µM
5 | O=C(NN1C(=O)/C(=C/C=C/c2ccco2)SC1=S)c1ccncc1 | > 100 µM (inactive)
6 | Cc1ccc(NC(=O)CCNS(=O)(=O)c2ccc3[nH]c(=O)oc3c2)cc1F | > 100 µM (inactive)
7 | O=C(N/N=C/c1ccc(O)cc1O)C(=O)N/N=C/c1ccc(O)cc1O | > 100 µM (inactive)
8 | C=CCn1c(SCC(=O)c2ccc(O)c(O)c2)nnc1-c1cccc(OC)c1 | 47.8 µM
9 | O=C(CCO)c1ccc(O)cc1 | 18.9 µM
10 | O=C(N/N=C/c1cn(Cc2cccc(F)c2)c2ccccc12)c1cc(O)cc(O)c1 | 53.3 µM
11 | O=C(NNC(=S)NC(=O)c1cccs1)c1ccc(O)cc1 | 36.8 µM
12 | NS(=O)(=O)c1ccc(-c2ccc(/C=C3\SC(=S)N(C4CCS(=O)(=O)C4)C3=O)o2)cc1 (configuration not stated) | 17.6 µM
13 | CNc1nnc(-c2cc3ccccc3oc2=O)s1 | > 100 µM (inactive)
14 | CCOc1cc(/C=C2\CCC/C(=C\c3cc(Cl)c(O)c(OCC)c3)C2=O)cc(Cl)c1O | > 100 µM (inactive)
15 | Cc1ccc(NS(=O)(=O)c2ccc3[nH]c(=O)oc3c2)c(C)c1 | 89 µM
16 | O=C1NC(=S)NC(=O)C1=Cc1ccc(Br)s1 | 59.6 µM
17 | O=C(CCCN1C(=O)/C(=C\c2ccco2)SC1=S)Nc1ccc(O)cc1C(=O)O | 44.7 µM
18 | Cc1ccc(NC(=O)CCNS(=O)(=O)c2ccc3[nH]c(=O)oc3c2)c(Cl)c1 | 26.3 µM
19 | COc1ccc(S(=O)(=O)Nc2ccc(O)c(Sc3ncn[nH]3)c2)cc1 | 68.6 µM
20 | O=C(/C=C/c1ccco1)NC(=S)Nc1cccc(C(=O)O)c1 | 46.8 µM
21 | Oc1ccc(/C=N/Nc2cc(N3CCCC3)nc(N3CCCC3)n2)cc1O | > 100 µM (inactive)
22 | COc1cc(/C=C(\C#N)C(=O)c2ccc(O)c(O)c2)cc(I)c1O | > 100 µM (inactive)
23 | COc1cccc(C(C)NC(=O)Nc2cccc(C(F)(F)F)c2)c1 (configuration not stated) | > 100 µM (inactive)

Row | SMILES | EC50
24 | Oc1ccc(-c2cn3c(n2)SCC3)cc1O | 55.6 µM
25 | O=C(CN1C(=O)/C(=C/c2ccco2)SC1=S)Nc1ccc(C(=O)O)c(O)c1 | > 100 µM (inactive)
26 | COc1ccc(NC(=O)CCNS(=O)(=O)c2ccc3[nH]c(=O)oc3c2)cc1Cl | 54 µM
27 | O=C(CN1CCN(c2ccccc2F)CC1)c1ccc(O)c(O)c1 | > 100 µM (inactive)
28 | O=C(O)Cc1ccc(O)c(O)c1 | > 100 µM (inactive)
29 | COc1cccc(CNC(=O)CCNS(=O)(=O)c2ccc3[nH]c(=O)oc3c2)c1 | > 100 µM (inactive)
30 | S=C(NCc1ccccc1)NC1CCSc2ccccc21 (configuration not stated) | > 100 µM (inactive)
31 | O=C(Nc1ccc(Cl)c(C(F)(F)F)c1)NC1CC2CCCC(C1)N2Cc1ccccc1 (configuration not stated) | > 100 µM (inactive)
32 | CCn1nc(C)c(CN2CCC(C(=O)Nc3cccc(-c4cccc(F)c4)c3)CC2)c1C | 65.1 µM
33 | COc1ccccc1CNC(=O)CCNS(=O)(=O)c1ccc2[nH]c(=O)oc2c1 | 49 µM
34 | CN(CC(=O)Nc1cccc(Cl)c1)S(=O)(=O)c1ccc2[nH]c(=O)oc2c1 | > 100 µM (inactive)
35 | O=C(N/N=C/c1ccc(O)c(O)c1)N/N=C/c1ccc(O)c(O)c1 | 29.6 µM
36 | CCOC(=O)CN1C(=O)/C(=C2\SC(=S)N(NC(=O)c3cccnc3)C2=O)c2ccccc21 | 35.1 µM
37 | O=C(O)C(c1ccccc1)N1C(=O)/C(=C\c2ccc(O)c(O)c2)SC1=S (configuration not stated) | 62.9 µM
38 | Cc1cc(/C=C2\SC(=S)NC2=O)c(C)[nH]1 | 61.1 µM
39 | NS(=O)(=O)c1cc(C(=O)NC2CCSc3ccccc32)ccc1Cl (configuration not stated) | 63.9 µM
40 | O=C(COC(=O)c1ccc(Br)o1)Nc1ncc([N+](=O)[O-])s1 | 60.5 µM
41 | O=S(=O)(c1cc(O)ccc1O)c1cccc2c(S(=O)(=O)c3cc(O)ccc3O)cccc12 | 24.3 µM
42 | CN(CCO)c1ccc(C=NNc2ccc([N+](=O)[O-])cc2S(=O)(=O)Nc2ccccc2C(=O)O)cc1 | 26 µM
43 | COc1ccc(N=C2SC(C(N)=O)CC(=O)N2CCc2ccc(OC)c(OC)c2)cc1 (configuration not stated) | 26.1 µM
44 | Oc1cc2c(cc1O)C1c3ccc(O)c(O)c3OCC1(O)C2 (configuration not stated) | 60.4 µM
45 | NNC(=O)c1cc(O)c(O)c(O)c1 | 69.3 µM
46 | O=[N+]([O-])c1cc(S(=O)(=O)c2ccc(O)c([N+](=O)[O-])c2)ccc1O | > 100 µM (inactive)

Row | SMILES | EC50
47 | Oc1ccc(C[C@H]2NCCc3cc(O)c(O)cc32)cc1O | > 100 µM (inactive)
48 | O=c1cc(-c2ccc(O)cc2)oc2c(O)c(O)c(O)c(O)c12 | 59.6 µM
49 | O=C1C=C(O)c2c(O)cc(O)c(O)c2C1=O | > 100 µM (inactive)
50 | Cc1ccc(N2C(=O)/C(=C/c3ccc(CN(CCC#N)S(C)(=O)=O)o3)C(=O)NC2=S)cc1 | 40.7 µM
51 | C[N+](C)(C)C(Cc1ccccc1)C(=O)[O-] (configuration not stated) | 59.7 µM
52 | COc1cc(OC)c(NC(=O)CN(C)S(=O)(=O)c2ccc3[nH]c(=O)oc3c2)cc1Cl | 69.8 µM
53 | CC1CC(=O)c2c(cc3c(-c4c(O)cc(O)c5c(O)c6c(cc45)OC(C)CC6=O)c(O)cc(O)c3c2O)O1 (configuration not stated) | 21.1 µM
54 | O=C(N/N=C/c1ccc([N+](=O)[O-])o1)c1sc2ccccc2c1Cl | > 100 µM (inactive)
55 | O=C(O)CC(C(=O)O)N1C(=O)/C(=C/c2ccc(-c3nc4ccccc4s3)o2)SC1=S (configuration not stated) | 60.8 µM
56 | CCn1c(CSc2nc3ccccc3s2)nnc1SCC(=O)c1ccc(O)c(O)c1 | 31.7 µM
57 | Cc1ccc(C)c(NC(=O)CCNS(=O)(=O)c2ccc3[nH]c(=O)oc3c2)c1 | > 100 µM (inactive)
58 | O=C(Cc1nnc(NC(=O)c2ccccc2)s1)N/N=C\c1ccc(O)c(O)c1 | > 100 µM (inactive)
59 | Cc1cc(=O)[nH]c(N/N=C/c2ccc(O)c(O)c2)n1 | 65.7 µM
60 | O=C(O)CC(CCc1ccccc1)OC1OC(CO)C(O)C(O)C1O (configuration not stated) | 73 µM
61 | COc1ccc(OC)c(S(=O)(=O)Nc2ccc(O)c(Sc3ncn[nH]3)c2)c1 | 57.5 µM
62 | CN(C)c1ccc(N=Nc2nc3ccccc3n2C)cc1 | 48.3 µM
63 | Nc1cc2nc3ccccc3oc-2cc1=O | 57.2 µM
64 | O=c1oc2cc(O)ccc2s1 | 12 µM
65 | NS(=O)(=O)c1ccc(NC(=S)NC(=O)/C=C/c2ccco2)cc1 | > 100 µM (inactive)
66 | O=C1/C(=C/C=C/c2ccco2)SC(=S)N1c1ccc(O)cc1 | 61.8 µM
67 | O=C1NC(=S)NC(=O)C1=Cc1ccc2c(c1)CCN2CCCCl | 57.5 µM
68 | CCN1/C(=C/C=C/c2oc3ccc(-c4ccccc4)cc3[n+]2CC)Oc2ccc(-c3ccccc3)cc21 | 24.5 µM
69 | Oc1ccc(/C=N/N=C/c2ccc(O)c(O)c2)cc1O | 68 µM

Row | SMILES | EC50
70 | O=C(CSc1nc2ccccc2o1)N/N=C/c1ccc(O)c(O)c1 | 67.5 µM
71 | O=C1CC(c2ccc(O)c(O)c2)Oc2cc(O)cc(O)c21 (configuration not stated) | 60.3 µM
72 | Cc1c(CN2CCC(C(=O)Nc3cccc(-c4cccc(Cl)c4)c3)CC2)cnn1C | 71.6 µM
73 | Cc1cc(O)c2c(c1O)C(=O)[C@]13C(=C2O)C(=O)[C@@H]2[C@@H](O)[C@H]1[C@@H]1[C@H](O)[C@H]3C(=O)C3=C(O)c4c(O)cc(C)c(O)c4C(=O)[C@]312 | 66.3 µM
74 | Cc1cc(C)c(S(=O)(=O)Nc2ccc(O)c(Sc3ncn[nH]3)c2)cc1C | 55 µM
75 | CC(C)c1ccc(NC(=O)NC2CCN(CC(=O)Nc3cccc4ccccc34)CC2)cc1 | 55.9 µM
76 | N#C/C(=C\c1coc2ccc(O)cc2c1=O)C(=O)Nc1nc2ccccc2s1 | 91.1 µM
77 | Cc1ccc(NC(=O)CN(C)S(=O)(=O)c2ccc3[nH]c(=O)oc3c2)c(C)c1 | 64.6 µM
78 | O=C(CCN1C(=O)/C(=C/c2ccco2)SC1=S)Nc1ccc(C(=O)O)c(O)c1 | 27.6 µM
79 | Oc1ccc(-c2csc(Nc3ccccn3)n2)cc1O | 45.8 µM
80 | O=C(CN1C(=O)/C(=C/c2ccco2)SC1=S)NC1CCS(=O)(=O)C1 (configuration not stated) | > 100 µM (inactive)
81 | CSC1=NSC2=NC(=O)/C(=C/c3coc4ccc(O)cc4c3=O)C(=N)N12 | 27.2 µM
82 | CC(C(=O)Nc1ccc(C(=O)O)c(O)c1)N1C(=O)/C(=C\c2ccco2)SC1=S (configuration not stated) | 76.8 µM
83 | O=C(CSc1n[nH]c(-c2ccccc2)n1)c1ccc(O)c(O)c1 | 65.3 µM
84 | O=C1/C(=C/C=C/c2ccco2)SC(=S)N1NS(=O)(=O)c1ccccc1 | > 100 µM (inactive)
85 | CCN1/C(=C/c2ccc3cc(C)ccc3[n+]2CC)Sc2ccc3sccc3c21 | 65.3 µM
86 | O=c1[nH]c(/C=C\c2ccc(O)c(O)c2)nc(O)c1[N+](=O)[O-] | > 100 µM (inactive)
87 | COc1ccc(OC)c(NC(=O)CCNS(=O)(=O)c2ccc3[nH]c(=O)oc3c2)c1 | > 100 µM (inactive)
88 | Cc1ccc(C)c(S(=O)(=O)Nc2ccc(O)c(Sc3ncn[nH]3)c2)c1 | 13.1 µM
89 | Cc1ccc(CN2C3CCCC2CC(NC(=S)NCc2ccccc2)C3)cc1 (configuration not stated) | > 100 µM (inactive)
90 | Cc1ccc(/C=C2/SC(=O)NC2=S)o1 | 55.9 µM
91 | N#Cc1cccc(NC(=O)CCNS(=O)(=O)c2ccc3[nH]c(=O)oc3c2)c1 | 89.7 µM
92 | CCOC(=O)C(C)Sc1nc2c(c(=O)[nH]c(=O)n2C)n1C/C=C(/C)Cl (configuration not stated) | 84.8 µM
